Measurements reported in PMC6696115, “Characterization of Antimicrobial, Antioxidant, and Leishmanicidal Activities of Schiff Base Derivatives of 4-Aminoantipyrine” (Molecules, 2019).
Converted amounts (≈) assume the structure as drawn.

Assays:
[1] = tested on: S. cerevisiae wild-type (W303 and BY4741 backgrounds); experiment: drop test, wild-type yeast; type: cell-based, Saccharomyces cerevisiae; settings: 200 µg/mL, 48 h, 25 °C
Protocol: Since the Schiff bases have a limited solubility in dimethyl sulfoxide (DMSO), first, we tested the toxicity of DMSO against the selected microorganism. […] Wild-type cells from W303 background seem to be more resistant, and sensitivity is observed at around 4% DMSO.
Next, we wanted to evaluate the oxidative activity. To do this, drop test assays were performed with wild-type (W303 and BY4741 backgrounds) and sod1 (BY4741 background) yeast cells in the presence of 200 µg/mL of the analyzed Schiff bases (Figure 3). The SOD1 gene encodes superoxide dismutase 1, an enzyme with a major role in detoxifying ROS species generated during metabolism or because of environmental exposure. sod1 mutant cells are unprotected against oxidative agents, decreasing survival in their presence. […] Also, wild-type cells are shown as control, unaffected by the Schiff bases.
For the drop test with S. cerevisiae, wild-type strain (background W303), and wild type and sod1 mutant cells (background BY4741) were grown overnight in YPAD media until an optical density of 0.5 at 600 nm was reached (equivalent to 1 × 10^7 cells/mL). Three serial dilutions were prepared and 5 µL of each was spotted onto a plate (approximately 1 × 10^5, 1 × 10^4, 1 × 10^3, and 1 × 10^2 cells/spot). YPAD plates were supplemented with 200 µg/mL of each Schiff base, and one plate supplemented with 2% DMSO and one plate with YPAD without any drug were used as controls. Plates were incubated at 25 °C for 24, 48, and 72 h.

[2] = tested on: promastigotes from L. mexicana (M379); experiment: leishmanicidal activity, MTT colorimetric assay; type: cell-based; settings: Leishmania mexicana, 48 h exposure, 1% DMSO
Protocol: Leishmanicidal activities of all Schiff bases were evaluated by measuring promastigote mitochondrial activity using MTT colorimetric assay as described previously. […] The medium was renewed every four days. Parasite density was determined in a Neubauer chamber.
Into each well of a 96-well cell culture dish was dispensed 1 × 10^6 parasites. A stock solution of each of the Schiff Base was prepared in DMSO, and serial dilutions were added to the parasite suspension, keeping the solvent concentration at 1%. The final volume was 100 µL for each well and triplicate conditions were carried out. Pentamidine treatment (100 µg/mL) and untreated parasites were used as positive control and negative control, respectively. After exposure to the compounds for 48 h in culture medium, 10 µL of a solution of 5 mg/mL MTT dissolved in PBS was added to each well. […] Later, the plate was centrifuged at 4400 rpm for 10 min and the culture medium was then aspirated. Next, 100 µL of DMSO were added into each well to solubilize the formazan and the plate was shaken for 5 min. The colored formazan salt was measured by recording changes in absorbance at 570 nm using a microplate reader, a BioTek Synergy HT spectrophotometer. A reference wavelength of 630 nm was used to subtract background. Optical densities were analyzed as the quantity of formazan is directly proportional to the number of viable parasites. Data were analyzed with the statistical software GraphPad Prism.

[3] = tested on: Candida albicans ATCC 10231; experiment: antimicrobial serial microdilution, C. albicans; type: cell-based; settings: serial microdilution, 35 °C, 48 h
Protocol: The in vitro antifungal and antimicrobial activities were determined by testing the Schiff bases against the fungi Saccharomyces cerevisiae, Candida albicans, and Aspergillus niger and the bacteria Staphylococcus aureus, Enterococcus faecalis (Gram-positive), Pseudomonas aeruginosa, and Escherichia coli (Gram-negative).
The bacterial inoculum was prepared by emulsifying overnight colonies from an agar medium in broth (Mueller–Hinton broth). The suspensions were adjusted to a final organism density of 5 × 10^5 colony former units (cfu)/mL. […] The emulsifying of A. niger cultures was done by pouring 5 mL of saline and 0.1% of polysorbate 80 over the Petri dishes. Then, 100 µL of this suspension were diluted in 5 mL of saline and adjusted to an optical density of 0.1 at 530 nm. For S. cerevisiae, fresh exponential YPAD (yeast extract 1%, peptone 2%, adenine 0.004%, […]) cultures were adjusted to an optical density of 0.5 at 600 nm, and then diluted to the equivalent of 1 × 10^4 cells/mL (10^−3 dilution). Stock solutions of Schiff bases were prepared by dissolving them in DMSO at 10 mg/mL. […] The range of concentrations used was empirically selected for each organisms and the Schiff base. Drug sensitivities were assayed by serial dilutions in 96-well plates as previously described. A row with media and cells but without drug was the positive control. The blank was done by preparing a row with media and drugs, but without cells. Plates were fitted with a tight lid before incubation to prevent desiccation. […] The minimum bactericidal concentration (MBC) and fungicidal concentration (MFC) were determined by spreading 100 µL of culture from each well onto a plate (Mueller–Hinton agar for bacteria, Sabouraud dextrose agar for fungi except S. cerevisiae, and YPAD for S. cerevisiae).

## Cc1c(N=Cc2ccccc2O)c(=O)n(-c2ccccc2)n1C [Compound 3b, 4-(2-Hydroxybenzylideneamino)-1,5-dimethyl-2-phenyl-1H-pyrazol-3(2H)-one]
[1]
  effect on wild-type cells in drop test: unaffected
[2]
  IC50: > 200 µM
[3]; Candida albicans, ATCC10231
  IC50: 5.8 µg/mL (≈ 18.9 µM)
  MIC: 13.2 ± 1.6 µg/mL (≈ 42.9 µM)
[3]; noninhibitory concentration
  NIC C. albicans: 3.0 ± 2.2 µg/mL
